Laboratory results as given in US20250319015A1, “VACCINIUM MACROCARPON EXTRACT AND ANTI-AGEING COSMETIC EFFECTS THEREOF” (SOCIETE INDUSTRIELLE LIMOUSINE D'APPLICATION BIOLOGIQUE, priority 2021, published 2025).
Where two headings read alike, the source gives them in different places. Marks after values point to notes of the source that are not given here.

Experiments:
[1] = system: healthy Caucasian female volunteers; conditions: retinol 0.075%, 18 volunteers
Procedure: (§2) This study was carried out on 3 groups of 18 healthy, female volunteers, aged 45 to 66 years and presenting with crow's feet wrinkles. Each of the volunteers applied two of the three formulae to half the face twice-daily in a randomized manner for 42 days.

claudin-1 = experiment: Claudin-1 synthesis in reconstructed epidermises (immunohistofluorescence); format: cell-based, human; conditions: older reconstructed epidermises, 10 μM Retinol
Procedure: (§1) This study was carried out on normal and older reconstructed epidermises. The epidermal construction was evaluated using a Hematoxylin Eosin (HE) stain and the synthesis of the barrier function markers by immunohistofluorescence. The procedure of the study is described below. […] The epidermides are recovered, fixed, dehydrated, and enclosed in paraffin. Sections (4 μm) are then made using a microtome. […] Viewing is performed using a microscope coupled to an image analysis system. The thickness of the epidermises obtained was measured on the histological sections produced. The rate of the various synthesized markers is proportional to the intensity of green fluorescence present on the reconstructed epidermises. A quantitative analysis of the images was carried out using an image analysis script. The results are expressed in arbitrary units (AU).

[2] = system: healthy Caucasian female volunteers; experiment: Structure of the dermal-epidermal junction by LC-OCT, Caucasian volunteers; format: in vivo, human; conditions: Retinol 0.075%
Procedure: This study was carried out on 3 groups of 18 healthy female volunteers, aged 45 to 66 years and presenting with crow's feet wrinkles. Each of the volunteers applied two of the three study formulae to half the face twice-daily in a randomized manner for 42 days.
Acquisitions carried out by LC-OCT after 21 and 42 days of treatment at the cheeks allowed evaluation of the structure of the dermal-epidermal junction

[3] = system: healthy Caucasian female volunteers; experiment: Transepidermal water losses (Tewameter), Caucasian volunteers; format: in vivo, human; conditions: Retinol 0.075%
Procedure: Transepidermal water losses (TEWL) measurements at the cheeks were carried out using a Tewameter® before and after 21 and 42 days of twice-daily application.
as §2

aquaporin 3 = experiment: Aquaporin 3 synthesis in reconstructed epidermises (immunohistofluorescence); format: cell-based, human; conditions: older reconstructed epidermises, 10 μM Retinol
Procedure: as §1

[4] = system: older human fibroblasts by successive replications; experiment: Gene expression by quantitative PCR on older human fibroblasts; format: cell-based; conditions: 1 μM Retinol
Procedure: The procedure of the study is described below. The young and older human cells are seeded and incubated at 37° C. […] After several days, the cells are recovered and the total RNA extracted. The RNAs were reverse-transcribed and the complementary DNAs obtained were analyzed by the quantitative PCR technique. The mRNAs of internal reference controls were analyzed in parallel with the mRNAs of the markers involved in the barrier function of the epidermis, in the DEJ and in the dermal matrix. The incorporation of fluorescence is measured continuously using a thermal cycler. The RQ (relative quantification) analysis is performed using software.

[5] = system: healthy Caucasian female volunteers; conditions: for Parameter a* (skin redness), change compared to placebo: Retinol 0.075%
Procedure: as §2

[6] = system: older reconstructed epidermises; experiment: Thickness of reconstructed epidermises (hematoxylin eosin stain); format: cell-based, human; conditions: 10 μM Retinol
Procedure: This study was carried out on normal and older reconstructed epidermises. The epidermal construction was evaluated using a Hematoxylin Eosin (HE) stain and the synthesis of the barrier function markers by immunohistofluorescence. The procedure of the study is described below. […] The epidermides are recovered, fixed, dehydrated, and enclosed in paraffin. Sections (4 μm) are then made using a microtome. The analysis of the thickness of the reconstructed epidermises is carried out by hematoxylin eosin (HE) stain. Viewing is performed using a microscope coupled to an image analysis system. The thickness of the epidermises obtained was measured on the histological sections produced.

[7] = system: healthy Caucasian female volunteers; experiment: Anti-wrinkle effect by light projection (crow's feet), Caucasian volunteers; format: in vivo, human; conditions: Retinol 0.075%
Procedure: The anti-wrinkle effect is evaluated according to the roughness parameter Sa, evaluated on the crow's feet zone by light projection and on the negative volume, evaluated on the same zone.

loricrin = experiment: Loricrin synthesis in reconstructed epidermises (immunohistofluorescence); format: cell-based, human; conditions: older reconstructed epidermises, 10 μM Retinol
Procedure: as §1

How did the “Incident rate of adverse effects” value [1] turn out when `CC1=C(/C=C/C(C)=C/C=C/C(C)=C/CO)C(C)(C)CCC1` [Retinol, retinol] was run?
The value was 17%.

And the “Subjects who demonstrated adverse effects likely caused by the study product” value ([1]; 42 days)?
Its value is “three”.

What about the “Ability to restore claudin-1 synthesis (%)” value (claudin-1) of the same compound?
The value was 0%.

What about the “Synthesis of claudin-1 (×10^4 AU)” value (claudin-1; 48 hours) of the same compound?
Its value is 136 ×10^4 AU.

And the “Sinuosity of the DEJ, change compared to placebo” value (“Sinuosity of the DEJ, change” below) ([2]; D 21)?
Its value is “+2%”.

And the “Sinuosity of the DEJ, change” value ([2]; D 21, listed as retinol)?
The value was “+2%”.

What about the “Sinuosity of the DEJ, change” value ([2]; D 42) of the same compound?
Its value is “+3%”.

What about the “Sinuosity of the DEJ, change” value ([2]; D 42, listed as retinol) of the same compound?
The value was “+3%”.

What about the “Water loss, change compared to placebo” value ([3]; D 21) of the same compound?
Its value is “+24%”.

And the “Water loss, change compared to placebo” value ([3]; D 21, listed as retinol)?
The value was “+24%”.

And the “Water loss, change compared to placebo” value ([3]; D 42)?
Its value is “+15%”.

And the “Water loss, change compared to placebo” value ([3]; D 42, listed as retinol)?
Its value is “+15%”.

What about the “Ability to restore aquaporin 3 synthesis (%)” value (aquaporin 3) of the same compound?
The value was “+100%”.

What about the “Aquaporin 3 synthesis (×10^4 AU)” value (aquaporin 3; 48 hours) of the same compound?
The value was 355** ×10^4 AU.

And the “ACAN: Efficacy of retinol/older control (%)” value [4]?
The value was −74%.

What about the “AQP3: Efficacy of retinol/older control (%)” value [4] of the same compound?
The value was “+30%”.

And the “BGN: Efficacy of retinol/older control (%)” value [4]?
The value was “+24%”.

What about the “COL1A1: Efficacy of retinol/older control (%)” value [4] of the same compound?
The value was “+25%”.

And the “COL3A1: Efficacy of retinol/older control (%)” value [4]?
The value was “+67%”.

What about the “CXCL8: Efficacy of retinol/older control (%)” value [4] of the same compound?
The value was “+282%”.

And the “DCN: Efficacy of retinol/older control (%)” value [4]?
Its value is “+7%”.

What about the “ELN: Efficacy of retinol/older control (%)” value [4] of the same compound?
Its value is “+5%”.

What about the “FBN1: Efficacy of retinol/older control (%)” value [4] of the same compound?
The value was −1%.

And the “HSPG2: Efficacy of retinol/older control (%)” value [4]?
Its value is “+3%”.

What about the “IL1: Efficacy of retinol/older control (%)” value [4] of the same compound?
Its value is “+151%”.

And the “LUM: Efficacy of retinol/older control (%)” value [4]?
The value was −3%.

What about the “MMP1: Efficacy of retinol/older control (%)” value [4] of the same compound?
Its value is −24%.

And the “POSTN: Efficacy of retinol/older control (%)” value [4]?
Its value is “+24%”.

And the “TGFβ1: Efficacy of retinol/older control (%)” value [4]?
The value was “+8%”.

And the “VEGFA: Efficacy of retinol/older control (%)” value [4]?
The value was “+2%”.

What about the “ACAN expression (qPCR)” value ([4]; young cells control=100) of the same compound?
The value was 10.

What about the “AQP3 expression (qPCR)” value ([4]; young cells control=100) of the same compound?
The value was 73.

And the “BGN expression (qPCR)” value ([4]; young cells control=100)?
The value was 78.

What about the “COL1A1 expression (qPCR)” value ([4]; young cells control=100) of the same compound?
The value was 79.

What about the “COL3A1 expression (qPCR)” value ([4]; young cells control=100) of the same compound?
Its value is 72.

What about the “CXCL8 expression (qPCR)” value ([4]; young cells control=100) of the same compound?
The value was 803.

What about the “DCN expression (qPCR)” value ([4]; young cells control=100) of the same compound?
Its value is 89.

And the “ELN expression (qPCR)” value ([4]; young cells control=100)?
The value was 63.

What about the “FBN1 expression (qPCR)” value ([4]; young cells control=100) of the same compound?
Its value is 90.

What about the “HSPG2 expression (qPCR)” value ([4]; young cells control=100) of the same compound?
Its value is 90.

And the “IL1 expression (qPCR)” value ([4]; young cells control=100)?
The value was 567.

And the “LUM expression (qPCR)” value ([4]; young cells control=100)?
Its value is 87.

What about the “MMP1 expression (qPCR)” value ([4]; young cells control=100) of the same compound?
Its value is 164.

What about the “POSTN expression (qPCR)” value ([4]; young cells control=100) of the same compound?
Its value is 56.

What about the “TGFβ1 expression (qPCR)” value ([4]; young cells control=100) of the same compound?
The value was 103.

And the “VEGFA expression (qPCR)” value ([4]; young cells control=100)?
The value was 93.

What about the “Appearance of skin redness, parameter a* (in words)” value ([5]; 0.075% of retinol, from 21 days of treatment) of the same compound?
Its value is “significantly increases parameter a*”.

What about the “Parameter a* (skin redness), change compared to placebo” value ([5]; D 21) of the same compound?
The value was “+5%”.

What about the “Parameter a* (skin redness), change compared to placebo” value ([5]; D 42) of the same compound?
The value was “+5%”.

What about the “Ability to restore the thickness of the epidermis (%)” value [6] of the same compound?
The value was “+94%”.

What about the “Measurement of the thickness of the epidermis (μm)” value ([6]; 48 hours) of the same compound?
The value was 59 μm.

What about the “Negative Volume (crow's feet), change compared to placebo” value (shortened to “Negative Volume (crow's feet), change”) ([7]; D 21) of the same compound?
The value was −12%.

And the “Parameter Sa (roughness, crow's feet), change compared to placebo” value ([7]; D 21)?
Its value is −5%.

And the “Negative Volume (crow's feet), change” value ([7]; D 42)?
Its value is −20%.

What about the “Parameter Sa (roughness, crow's feet), change compared to placebo” value ([7]; D 42) of the same compound?
The value was −7%.

And the “Negative Volume (crow's feet), change” value ([7]; D 42, listed as retinol)?
The value was −20%.

And the “Ability to restore loricrin synthesis (%)” value (loricrin)?
Its value is 0%.

And the “Synthesis of loricrin (×10^4 AU)” value (loricrin; 48 hours)?
Its value is 177 ×10^4 AU.
